Laboratory results: publication PMC12198407, “Preclinical and first-in-human of purinostat mesylate, a novel selective HDAC I/IIb inhibitor, in relapsed/refractory multiple myeloma and lymphoma” (Signal Transduction and Targeted Therapy, 2025)
Entries after “also recorded” stand apart in the source; their conditions may differ.

Experiment: Phase I trial NCT05526313, safety and tolerability (adverse events, CTCAE 5.0)

CN(Cc1nc2c(N3CCOCC3)nc(-c3ccc(N)cc3)nc2n1C)c1ncc(C(=O)NO)cn1.CS(=O)(=O)O [PM, 2-(((2-(4-Aminophenyl)-9-methyl-6-(4-morpholinyl)-9H-purine-8-yl)methyl)methylamino)-N-hydroxy-5-pyrimidine-carboxamide Mesylate]
dose-limiting toxicity (DLT) (1.2–15 mg/m^2): no dose-limiting toxicities observed; also recorded: no dose-limiting toxicity (DLT) events occurred; also recorded: no arrhythmias or DLT were observed
grade 5 events (29 treated patients): no grade 5 events reported
patients with grade 3–4 TEAEs (29 treated patients): 25 (86.2%) n (%)
COVID-19 ([…]): 1(3.4) n (%)
Investigations (SOC) ([…]): 29(100.0) n (%)
QRS axis abnormalities ([…]): 1(3.4) n (%)
ST segment abnormalities on ECG ([…]): 5(17.2) n (%)
ST-T segment changes on ECG ([…]): 9(31.0) n (%)
T wave abnormalities on ECG ([…]): 9(31.0) n (%)
abdominal discomfort ([…]): 1(3.4) n (%)
abdominal distension ([…]): 4(13.8) n (%)
abdominal pain ([…]): 2(6.9) n (%)
abnormal liver function ([…]): 1(3.4) n (%)
alopecia ([…]): 1(3.4) n (%)
anemia ([…]): 20(69.0) n (%)
angular cheilitis ([…]): 1(3.4) n (%)
appendicitis ([…]): 1(3.4) n (%)
arrhythmia ([…]): 1(3.4) n (%)
arthralgia ([…]): 3(10.3) n (%)
atrial tachycardia ([…]): 1(3.4) n (%)
backache ([…]): 1(3.4) n (%)
bacteremia ([…]): 1(3.4) n (%)
belching ([…]): 1(3.4) n (%)
bleeding gums ([…]): 1(3.4) n (%)
blood and lymphatic system diseases (SOC) ([…]): 20(69.0) n (%)
chill ([…]): 1(3.4) n (%)
conjunctival bleeding ([…]): 1(3.4) n (%)
constipation ([…]): 1(3.4) n (%)
cough ([…]): 1(3.4) n (%)
decreased blood fibrinogen ([…]): 1(3.4) n (%)
decreased lymphocyte count ([…]): 16(55.2) n (%)
decreased monocyte count ([…]): 2(6.9) n (%)
decreased neutrophil count ([…]): 25(86.2) n (%)
decreased platelet count ([…]): 24(82.8) n (%)
decreased white blood cell count ([…]): 24(82.8) n (%)
diarrhea ([…]): 4(13.8) n (%)
dizziness ([…]): 13(44.8) n (%)
duodenogastric reflux ([…]): 1(3.4) n (%)
dyspepsia ([…]): 1(3.4) n (%)
dyspnea ([…]): 1(3.4) n (%)
elevated blood creatine phosphokinase ([…]): 1(3.4) n (%)
elevated blood unconjugated bilirubin ([…]): 1(3.4) n (%)
epigastric pain ([…]): 1(3.4) n (%)
epistaxis ([…]): 2(6.9) n (%)
extraventricular contraction ([…]): 1(3.4) n (%)
eye organ disease (SOC) ([…]): 2(6.9) n (%)
eyelid edema ([…]): 1(3.4) n (%)
facial pain ([…]): 1(3.4) n (%)
fatigue ([…]): 3(10.3) n (%)
fever ([…]): 2(6.9) n (%)
fungal skin infection ([…]): 1(3.4) n (%)
gastritis ([…]): 1(3.4) n (%)
gastroesophageal reflux disease ([…]): 2(6.9) n (%)
gastrointestinal hemorrhage ([…]): 1(3.4) n (%)
gastrointestinal system diseases (SOC) ([…]): 21(72.4) n (%)
head discomfort ([…]): 1(3.4) n (%)
headache ([…]): 14(48.3) n (%)
heart organ diseases (SOC) ([…]): 13(44.8) n (%)
heat and cold intolerance ([…]): 1(3.4) n (%)
hematochezia ([…]): 1(3.4) n (%)
hematuria ([…]): 4(13.8) n (%)
hepatic failure ([…]): 2(6.9) n (%)
hepato-biliary diseases (SOC) ([…]): 3(10.3) n (%)
herpes zoster ([…]): 4(13.8) n (%)
herpesvirus infection ([…]): 1(3.4) n (%)
high voltage on ECG ([…]): 3(10.3) n (%)
hypercalcemia ([…]): 1(3.4) n (%)
hyperglycemia ([…]): 7(24.1) n (%)
hyperlipoidemia ([…]): 4(13.8) n (%)
hypermagnesemia ([…]): 3(10.3) n (%)
hypertension ([…]): 2(6.9) n (%)
hypertriglyceridemia ([…]): 2(6.9) n (%)
hyperuricemia ([…]): 4(13.8) n (%)
hypoalbuminemia ([…]): 1(3.4) n (%)
hypocalcemia ([…]): 7(24.1) n (%)
hypochloremia ([…]): 4(13.8) n (%)
hypokalemia ([…]): 11(37.9) n (%)
hypomagnesemia ([…]): 4(13.8) n (%)
hyponatremia ([…]): 10(34.5) n (%)
hypophosphatemia ([…]): 13(44.8) n (%)
hypotension ([…]): 2(6.9) n (%)
increased blood creatinine ([…]): 2(6.9) n (%)
increased lymphocyte count ([…]): 1(3.4) n (%)
increased monocyte count ([…]): 13(44.8) n (%)
increased serum bilirubin ([…]): 4(13.8) n (%)
increased total bile acid ([…]): 1(3.4) n (%)
increased troponin ([…]): 1(3.4) n (%)
increased urobilinogen in the urine ([…]): 3(10.3) n (%)
increased γ-glutamyl transferase ([…]): 2(6.9) n (%)
infections and infestations diseases (SOC) ([…]): 13(44.8) n (%)
infectious pneumonia ([…]): 1(3.4) n (%)
insomnia ([…]): 1(3.4) n (%)
kidney and urinary system diseases (SOC) ([…]): 6(20.7) n (%)
left ventricular dysfunction ([…]): 1(3.4) n (%)
limb pain ([…]): 2(6.9) n (%)
loss of appetite ([…]): 2(6.9) n (%)
mental disorder (SOC) ([…]): 1(3.4) n (%)
metabolic and nutritional diseases (SOC) ([…]): 23(79.3) n (%)
muscle weakness ([…]): 1(3.4) n (%)
musculoskeletal discomfort ([…]): 1(3.4) n (%)
nasal congestion ([…]): 1(3.4) n (%)
nausea ([…]): 15(51.7) n (%)
oral hypoesthesia ([…]): 2(6.9) n (%)
oral mucositis ([…]): 1(3.4) n (%)
palpitation ([…]): 4(13.8) n (%)
parageusia ([…]): 1(3.4) n (%)
pericardial effusion ([…]): 1(3.4) n (%)
periodontitis ([…]): 1(3.4) n (%)
peripheral edema ([…]): 1(3.4) n (%)
petechia ([…]): 2(6.9) n (%)
proteinuria ([…]): 1(3.4) n (%)
pruritus ([…]): 3(10.3) n (%)
pulmonary inflammation ([…]): 1(3.4) n (%)
rash ([…]): 3(10.3) n (%)
reduced intake ([…]): 10(34.5) n (%)
renal failure ([…]): 1(3.4) n (%)
respiratory tract infection ([…]): 1(3.4) n (%)
right bundle branch block ([…]): 1(3.4) n (%)
sinus bradycardia ([…]): 1(3.4) n (%)
sinus tachycardia ([…]): 7(24.1) n (%)
skin and subcutaneous tissue diseases (SOC) ([…]): 10(34.5) n (%)
skin pain ([…]): 1(3.4) n (%)
skin xerosis ([…]): 2(6.9) n (%)
soft tissue infection ([…]): 1(3.4) n (%)
supraventricular extraventricular contraction ([…]): 2(6.9) n (%)
systemic diseases and various reactions at the administration site (SOC) ([…]): 19(65.5) n (%)
tachypnea ([…]): 3(10.3) n (%)
tongue ulcer ([…]): 1(3.4) n (%)
upper respiratory tract bacterial infection ([…]): 1(3.4) n (%)
upper respiratory tract infection ([…]): 3(10.3) n (%)
urinary tract infection ([…]): 3(10.3) n (%)
urine protein detection ([…]): 4(13.8) n (%)
various musculoskeletal and connective tissue diseases (SOC) ([…]): 7(24.1) n (%)
various neurological diseases (SOC) ([…]): 19(65.5) n (%)
vascular and lymphatic diseases (SOC) ([…]): 3(10.3) n (%)
ventricular hypokinesia ([…]): 1(3.4) n (%)
vesicular rash ([…]): 1(3.4) n (%)
vomit ([…]): 15(51.7) n (%)
weakness ([…]): 14(48.3) n (%)
ST segment abnormalities on ECG ([…], second line of this term): 1(3.4) n (%)
hypermagnesemia ([…], second line of this term): 2(6.9) n (%)
Grade ≥3 lymphopenia (all doses, N = 29): 31.0%
Grade ≥3 thrombocytopenia (all doses, N = 29): 75.9%
